Data reported in PMC3518313 (Biochemistry, 2012).
Where two headings read alike, the source gives them in different places.

Key:
[1] = tested on: O=C(O)/C=C/Br; assay: purified protein, by the assay type
[2] = biological target: T1, αY60W-CaaD (Pseudomonas pavonaceae, UniProt Q9EV84+Q9EV85, Q9EV85:Y61W); assay: Stopped-flow fluorescence binding of malonate semialdehyde; set-up: species or system Pseudomonas pavonaceae 170
T1 sequence (Q9EV85 2-76 Y61W): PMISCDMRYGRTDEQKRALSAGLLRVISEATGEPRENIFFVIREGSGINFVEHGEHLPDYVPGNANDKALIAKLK
T1 sequence (Q9EV84 2-71): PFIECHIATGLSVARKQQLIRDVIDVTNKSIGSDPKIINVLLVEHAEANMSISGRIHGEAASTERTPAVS

[3] = tested on: αM7W-CaaD; assay type: biochemical; details: αM7W-CaaD vs wild-type
[4] = tested on: αL57W-CaaD; assay: Steady state activity assay; assay type: biochemical, Pseudomonas pavonaceae 170; details: αL57W mutant
[5] = biological target: T1, αY60W-CaaD; assay: Stopped-flow fluorescence of the reaction with 9, conventional analysis; assay type: biochemical, Pseudomonas pavonaceae 170
[6] = biological target: T1, αY60W-CaaD; assay: Global fitting of kinetic data to the six-step model; assay type: biochemical, Pseudomonas pavonaceae 170
[7] = biological target: T1, αY60W-CaaD; details: αY60W-CaaD vs wild-type
[8] = biological target: βI37W-CaaD (Pseudomonas pavonaceae, UniProt Q9EV84+Q9EV85, Q9EV84:I38W); assay: biochemical
[9] = biological target: T2, Wild-type CaaD (Pseudomonas pavonaceae, UniProt Q9EV84+Q9EV85); assay: Rapid-quench burst experiment, bromide quantified by IC; details: wild-type 400 μM; saturating 9; pH 8.1, 22 °C
T2 sequence (Q9EV85 2-76): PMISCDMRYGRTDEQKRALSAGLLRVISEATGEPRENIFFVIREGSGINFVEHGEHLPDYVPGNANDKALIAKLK
T2 sequence (Q9EV84 2-71): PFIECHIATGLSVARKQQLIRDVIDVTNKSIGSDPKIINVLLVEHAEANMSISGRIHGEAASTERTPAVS

[10] = biological target: T1, αY60W-CaaD; assay: as above
[11] = biological target: T1, αY60W-CaaD; details: competitive inhibition; 9 at 35–200 μM, bromide 0–50,000 μM
[12] = biological target: T1, αY60W-CaaD
[13] = tested on: CaaD; assay: Inhibition of CaaD by the internal standard tartrate; assay type: biochemical, Pseudomonas pavonaceae 170; details: at concentrations of 4 mM
[14] = substrate: O=C(O)/C=C/Br; assay: purified protein, by the assay type; details: other: wild-type CaaD, 100 mM Na2HPO4 buffer pH 8.1, 22 °C
[15] = other: αM7W, 100 mM Na2HPO4 buffer pH 8.1, 22 °C, pH 8.1, 22.0 °C
[16] = Table 2, αY60W 400 μM, saturating 9, pH 8.1, 22 °C
[17] = Table 3, enzyme concentration 200 μM, 9 at 10,000 μM
[18] = Table 3, enzyme concentration 400 μM, 9 at 10,000 μM
[19] = Table 3, enzyme concentration 600 μM, 9 at 10,000 μM
[20] = other: using the numbers in Table 4 and Scheme 3

## αM7W-CaaD (Pseudomonas pavonaceae; Q9EV85:M8W)
[1]; [15]
  Km: 120 ± 10 OM
  kcat: 0.6 s⁻¹
  kcat/Km: 3000 M⁻¹ s⁻¹

## O=CCC(=O)O [compound 4, malonate semialdehyde]
[2]; Kd (koff / kon), estimate from conventional kon and koff
  Kd: 1.1 mM
[2]; Kd, 4, calculated from simulation kon and koff
  Kd: ~0.6 mM
[2]; Kd, end-point fluorescence titration fit to Equation S2
  Kd: 0.38 mM
[2]; fit by simulation
  fluorescence factor for enzyme bound to 4: 1.14
[2]; read-out: koff, 4, conventional analysis, kobs vs [4], 250 ms
  koff: 28 s⁻¹
[2]; read-out: koff, 4, fit by simulation (250 ms)
  koff: 17 s⁻¹
[2]; upon mixing αY60W-CaaD with 4
  increase in the fluorescence signal: 16%

## O=C(O)/C=C/Br [compound 9, trans-3-bromoacrylate]
[3]
  decrease in kcat compared with wild-type: ~ 4 fold
  decrease in kcat/Km compared with wild-type: 4 fold
[4]
  activity: no activity
[5]; fit to Eq. 3
  net forward rate kfor: ~ 8 s^−1
[5]; fit to Eq. 3, equal to kcat
  apparent reverse rate krev: ~ 3 s^−1
[5]; single exponential fit, first 1 s
  maximum rate of the fluorescence change: ~ 10 s^−1
[6]; global fit to Scheme 4, fractional change in enzyme fluorescence
  f/f0 (fluorescence scaling factor), best fit: 0.710
[6]; global fit, formation of E*PQ, k-3 fixed at 1 s^−1
  k3, best fit: 9.6 s⁻¹
[7]
  decrease in Km compared with wild-type: ~ 1.5 fold
[8]
  Kd: > 40 mM
[9]
  Burst Amplitude (A): 0.8
  kburst: 90 ± 20 ^c s^−1
  kcat (calculated from the burst equation): 3 ± 0.5 s⁻¹
[10]; [16]
  Burst Amplitude (A): 0.9
  kburst: 86 ± 10 s⁻¹
  kcat (calculated from the burst equation): 2.5 ± 0.5 s⁻¹
[10]; [17]
  Burst Amplitude (A): 0.85
  kburst: 43 ± 3 ^c s^−1
  kcat (calculated from the burst equation): 1.8 ± 0.5 s⁻¹
[10]; [18]
  Burst Amplitude (A): 0.9
  kburst: 86 ± 20 s⁻¹
  kcat (calculated from the burst equation): 2.5 ± 0.5 s⁻¹
[10]; [19]
  Burst Amplitude (A): 0.94
  kburst: 107 ± 15 s⁻¹
  kcat (calculated from the burst equation): 2.8 ± 0.5 s⁻¹
[10]; summary of Tables 2 and 3 (CaaD and αY60W-CaaD), 9 at 10 mM
  steady state turnover: 3 s⁻¹

## Br [bromide]
[6]; read-out: Kd,Br, best fit, global fit, k5 held fixed at 200 s^−1
  Kd: 12.5 mM
[11]
  Ki: ~10 mM
[12]; bromide bound to αY60W-CaaD
  increase in fluorescence: ~ 14%
[12]; fit by simulation
  fluorescence factor for enzyme-bound bromide: 1.17
[12]; read-out: Kd, Br-, fit by simulation, koff fixed at 200 s^−1
  Kd: 12 mM
[12]; read-out: predicted Kd, saturation of the fluorescence signal, hyperbolic fit
  Kd: 7.4 mM

## O=C(O)/C=C/Cl [compound 2, trans-3-chloroacrylic acid]
[4]
  activity: no activity

## αY60W-CaaD (Pseudomonas pavonaceae; Q9EV85:Y61W)
[1]; [20]
  Km: 95 µM
  kcat: 2.2 s⁻¹
[1]; other: αY60W, 100 mM Na2HPO4 buffer pH 8.1, 22 °C, pH 8.1, 22.0 °C
  Km: 70 ± 3.5 OM

## O=C(O)C(O)C(O)C(=O)O (centres unmarked) [Tartrate]
[13]
  inhibition of CaaD: does not inhibit

B1: Wild-type CaaD (Pseudomonas pavonaceae) (protein)
chain 1: PMISCDMRYGRTDEQKRALSAGLLRVISEATGEPRENIFFVIREGSGINFVEHGEHLPDYVPGNANDKALIAKLK
chain 2: PFIECHIATGLSVARKQQLIRDVIDVTNKSIGSDPKIINVLLVEHAEANMSISGRIHGEAASTERTPAVS
[14]
  Km: 120 ± 10 OM
  kcat: 2.5 s⁻¹
  kcat/Km: 13000 M⁻¹ s⁻¹
